Where “and” joins values, the source holds several entries; their conditions need not be identical. Equal values may be shown once. Read-outs that look alike come from different tables or passages of the source.
Legend:
[1] = target: T1, MRGPRX4 + RAMP1 (Homo sapiens, UniProt Q96LA9); experiment: IP1 accumulation, MRGPRX4 coexpressed with RAMP1; assay type: cell-based; set-up: key to IP1 Basal / response to agonist, X4:ramp1.I:1 / response to agonist, X4:ramp1.I:2 / response to agonist, X4:ramp1.I:0.25 / response to agonist, X4:ramp1.I:0.5: % IP1; unstimulated mock = 0%, fully stimulated MRGPRX4 = 100%; settings: for activation at 100 µM / activation at 20 µM / activation at 0.8 µM / activation at […] / activation at 0.032 µM / activation at 4 µM: 2 h, Fig S3d, read-out: IP1 accumulation; for activation at 100 µM: log [DCA] (M) -4; for activation at 20 µM: log [DCA] (M) -4.69897; for activation at 0.8 µM: log [DCA] (M) -6.09691; for activation at […]: log [DCA] (M) -6.79588; for activation at 0.032 µM: log [DCA] (M) -7.49485; for activation at 4 µM: log [DCA] (M) -5.39794
T1 construct: expressed in transfected cells; host or cells: HEK293T
Experimental: (§1) HEK293T cells were transfected with 1 pg/cell of MRGPRX4 DNA, and the amount of DNA was kept constant at 2 pg/cell with pcDNA3.1(+) empty vector, unless otherwise specified. Twenty four hours after transfection, IP1 assay was performed as previously described ([51]). When applicable, cells were treated with 1 μM YM254890 (YM) or different concentrations of U73122 for 1 h prior to addition of agonist or buffer. After incubation for 2 h, HTRF reagents and IP1 calibration standards were added and incubated for 2 h in the dark at room temperature. Time-resolved fluorescence signals were read on the BioTek Synergy NEO-TRF Hybrid multi-mode reader (BioTek Instruments). All data were carried out in three independent experiments with three technical replicate each.
For a homogenous transfection of MRGPRX4, a master mix of MRGPRX4 DNA was made prior to addition of the RAMP DNA. […]
(§2) Data reduction, standard calibration, and transformation of HTRF data were performed as previously described ([51]). Normalized IP1 values were calculated relative to the unstimulated mock-transfected cells (set to 0%) and fully stimulated MRGPRX4 (alone if applicable) (set to 100%).

[2] = target: T2, MRGPRX4 + RAMP3 (Homo sapiens, UniProt Q96LA9); experiment: IP1 accumulation, MRGPRX4 coexpressed with RAMP3; assay type: cell-based; set-up: key: % IP1; unstimulated mock = 0%, fully stimulated MRGPRX4 = 100%; settings: Figure 4c-f; agonist 100µM; X4:ramp3 1:2; MRGPRX4 = 100
T2 construct: expressed in transfected cells; host or cells: HEK293T

[3] = system: mock-transfected HEK293T cells; experiment: IP1 accumulation, mock-transfected cells; assay type: cell-based, human; set-up: IP1 Basal / IP1 span / IP1 Emax / IP1 accumulation, dose-response (Figure 1a) / IP1 accumulation with YM (Figure 1c) / IP1 accumulation: unit not given here; settings: for IP1 accumulation, dose-response (Figure 1a): pcDNA (mock), individual replicates; for IP1 accumulation: mock, Fig S3d-f
Experimental: as §1
Validation of CALCRL constructs was assayed by cotransfecting HEK293T cells with different tagged versions of CALCRL alone or with each RAMP and with the promiscuous Gqs5 Gq chimera protein, at a respective DNA ratio of 1:1:0.5. Gqs5 is an engineered Gq protein containing the last five amino acid residues of Gs, which allows Gs-coupled GPCRs to signal through Gq downstream signaling pathways ([55]). The homogenous transfection method described above was used for all DNA mixes. CALCRL:RAMP2:Gqs5-transfected cells served as positive control for RAMP functionality.
as §2

[4] = Mock, MRGPRX4 construct comparison (Fig. S4B,C-F)

T1 sequence (Q96LA9 whole entry): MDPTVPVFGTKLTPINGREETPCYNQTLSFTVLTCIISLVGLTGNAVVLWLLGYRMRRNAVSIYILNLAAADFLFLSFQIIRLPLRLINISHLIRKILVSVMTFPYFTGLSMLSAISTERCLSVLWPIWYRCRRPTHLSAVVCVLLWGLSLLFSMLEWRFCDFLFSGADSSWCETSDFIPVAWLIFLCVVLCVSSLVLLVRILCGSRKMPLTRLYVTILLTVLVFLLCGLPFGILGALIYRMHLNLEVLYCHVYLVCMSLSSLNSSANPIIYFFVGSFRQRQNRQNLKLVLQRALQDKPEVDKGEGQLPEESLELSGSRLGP
T2 sequence (Q96LA9 whole entry): as above

Q: What does the source list for `C[C@H](CCC(=O)O)[C@H]1CC[C@H]2[C@@H]3CC[C@@H]4C[C@H](O)CC[C@]4(C)[C@H]3C[C@H](O)[C@]12C` [DCA, deoxycholic acid]?
A: activation at 100 µM ([1]; ratio MRGPRX4:RAMP1 1:0.25): 91.8%; activation at 20 µM ([1]; ratio MRGPRX4:RAMP1 1:0.25): 80.7%; activation at 0.8 µM ([1]; ratio MRGPRX4:RAMP1 1:0.25): 27.4%; activation at […] ([1]; ratio MRGPRX4:RAMP1 1:0.25): 30.3%; activation at 0.032 µM ([1]; ratio MRGPRX4:RAMP1 1:0.25): 28.5%; activation at 100 µM ([1]; ratio MRGPRX4:RAMP1 1:0.5): 103%; activation at 20 µM ([1]; ratio MRGPRX4:RAMP1 1:0.5): 62.7%; activation at 4 µM ([1]; ratio MRGPRX4:RAMP1 1:0.5): 38.6%; activation at 0.8 µM ([1]; ratio MRGPRX4:RAMP1 1:0.5): 26.5%; activation at […] ([1]; ratio MRGPRX4:RAMP1 1:0.5): 22.5%; activation at 0.032 µM ([1]; ratio MRGPRX4:RAMP1 1:0.5): 22.6%; activation at 20 µM ([1]; ratio MRGPRX4:RAMP1 1:1): 61.5%; activation at 4 µM ([1]; ratio MRGPRX4:RAMP1 1:1): 34.6%; activation at 0.8 µM ([1]; ratio MRGPRX4:RAMP1 1:1): 30.1%; activation at […] ([1]; ratio MRGPRX4:RAMP1 1:1): 22.8%; activation at 20 µM ([1]; ratio MRGPRX4:RAMP1 1:2): 59.4%; activation at 4 µM ([1]; ratio MRGPRX4:RAMP1 1:2): 29.7%; activation at 0.8 µM ([1]; ratio MRGPRX4:RAMP1 1:2): 22%; activation at […] ([1]; ratio MRGPRX4:RAMP1 1:2): 15.8%; Emax ([1]; Figure 4a bottom, DNA ratio MRGPRX4:RAMP1 1:0.5, MRGPRX4 alone = 100, read-out: efficacy): 109%; response to agonist, X4:ramp1.I:0.25 ([1]; Figure 4c-f, agonist 100µM, X4:ramp1 1:0.25, MRGPRX4 = 100): 100.247 and 94.5976; response to agonist, X4:ramp1.I:0.5 ([1]; Figure 4c-f, agonist 100µM, X4:ramp1 1:0.5, MRGPRX4 = 100): 101.591 and 94.608; response to agonist, X4:ramp1.I:1 ([1]; Figure 4c-f, agonist 100µM, X4:ramp1 1:1, MRGPRX4 = 100): 97.7538 and 86.0836; response to agonist, X4:ramp1.I:2 ([1]; Figure 4c-f, agonist 100µM, X4:ramp1 1:2, MRGPRX4 = 100): 90.6013 and 100.616; IP1 Basal ([1]; MRGPRX4 + RAMP1 0.25 pg (Fig. S3), normalized per agonist): 25.16; Emax ([1]; MRGPRX4 + RAMP1 0.25 pg (Fig. S3), normalized per agonist, read-out: IP1 Emax): 113%; Emax ([1]; MRGPRX4 + RAMP1 0.25 pg (Fig. S3), normalized per agonist, read-out: IP1 span): 87.7%; IP1 Basal ([1]; MRGPRX4 + RAMP1 0.5 pg (Fig. S3), normalized per agonist): 24.94; Emax ([1]; MRGPRX4 + RAMP1 0.5 pg (Fig. S3), normalized per agonist, read-out: IP1 Emax): 117%; Emax ([1]; MRGPRX4 + RAMP1 0.5 pg (Fig. S3), normalized per agonist, read-out: IP1 span): 92%; IP1 Basal ([1]; MRGPRX4 + RAMP1 1 pg (Fig. S3), normalized per agonist): 22.25; Emax ([1]; MRGPRX4 + RAMP1 1 pg (Fig. S3), normalized per agonist, read-out: IP1 Emax): 118%; Emax ([1]; MRGPRX4 + RAMP1 1 pg (Fig. S3), normalized per agonist, read-out: IP1 span): 95.8%; IP1 Basal ([1]; MRGPRX4 + RAMP1 2 pg (Fig. S3), normalized per agonist): 17.30; Emax ([1]; MRGPRX4 + RAMP1 2 pg (Fig. S3), normalized per agonist, read-out: IP1 Emax): 112%; Emax ([1]; MRGPRX4 + RAMP1 2 pg (Fig. S3), normalized per agonist, read-out: IP1 span): 94.5%; response to agonist, X4:ramp3.I:2 [2]: 55.7055 and 63.4334; Emax ([3]; Homo sapiens, HEK-293T, Mock, MRGPRX4 construct comparison (Fig. S4B,C-F)): 0.236%; IP1 Basal [3, 4]: 2.330; IP1 span [3, 4]: -2.094; IP1 accumulation, dose-response (Figure 1a) ([3]; log [agonist] (M) -4): 0.2103 and 0.3669 and 0.293 and -0.07837 and 0.1649 and -0.08879 and 0.2113 and -0.2385 and -0.6593 and -0.4375 and -0.5166 and -0.9554; IP1 accumulation, dose-response (Figure 1a) ([3]; log [agonist] (M) -4.95424): 0.553 and 0.2642 and 0.3806 and 0.3517 and 0.05455 and 0.247 and 0.3525 and -0.3352 and -0.4263 and -0.5038 and 0.5136 and -0.7508; IP1 accumulation, dose-response (Figure 1a) ([3]; log [agonist] (M) -5.90849): 0.1227 and 0.5487 and 0.6873 and 0.2386 and 0.02519 and 0.3705 and 0.5521 and -0.1483 and -0.4243 and -0.2808 and 0.06832 and -0.3071; IP1 accumulation, dose-response (Figure 1a) ([3]; log [agonist] (M) -6.86273): 0.3536 and 0.9227 and 0.8938 and 0.5392 and 0.2564 and 0.9514 and 0.9872 and 0.3929 and 0.5666 and 0.2655 and 0.4716 and 0.3728; IP1 accumulation ([3]; log [DCA] (M) -4): 1.182 and 0.9551 and 1.627; IP1 accumulation ([3]; log [DCA] (M) -5.39794): 0.3631 and 0.268 and 0.3023

— paper PMC10165273, “Itch receptor MRGPRX4 interacts with the receptor activity–modifying proteins” (The Journal of Biological Chemistry, 2023)
